Data on twelve molecules can be found in ChEMBL document CHEMBL1201862, “PubChem BioAssay data set” (2004).

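48-hour exposure; five concentrations; linearly interpolated endpoints. At the GI50, growth is halved.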 The source made the active and inactive calls. Rule as the data show it: active = GI50 up to about 1.1 µM and inactive = higher.

Some test systems named below: EKVX; DU-145; UO-31; HOP-62; SK-MEL-28; RPMI-8226; NCI-H23; UACC-257; SF-268; MDA-MB-435; SK-OV-3; CCRF-CEM; MOLT-4; Malme-3M; MDA-MB-231; OVCAR-4; 786-0; BT-549; SR; HCC 2998.
Common to all, as to experiment: DTP human tumour cell line panel, 48 h

With `Cc1cc(-c2ccc(C(=O)C(Cl)(Cl)Cl)[nH]2)on1`, the GI50 is 35.1 µM (inactive) with EKVX; 16.1 µM (inactive) with DU-145; 22.3 µM (inactive) in the assay on UO-31; 11.4 µM (inactive) in the assay on HOP-62; 31.4 µM (inactive) in the assay with SK-MEL-28; 8.51 µM (inactive) in the assay on RPMI-8226. Further, the GI50 in the assay with NCI-H23 was 23.8 µM (inactive); with UACC-257, 42.1 µM (inactive); in the assay with SF-268, 36.9 µM (inactive); with MDA-MB-435, 20.5 µM (inactive); in the assay with SK-OV-3, 60 µM (inactive); with CCRF-CEM it was 27.2 µM (inactive). Further, the GI50 with MOLT-4 was 2.95 µM (inactive); in the assay on Malme-3M it was 73.1 µM (inactive); in the assay with MDA-MB-231, 18 µM (inactive); with OVCAR-4, 35.5 µM (inactive); in the assay on 786-0 it was 37 µM (inactive); in the assay with BT-549 it was 33.3 µM (inactive).

In the case of `CNc1cc(Cl)ccc1C(=O)N1CCC[C@H]1CO`, the GI50 in the assay with EKVX, with DU-145, in the assay with UO-31, in the assay on HOP-62, in the assay with SK-MEL-28 and with NCI-H23 was > 100 µM (inactive) throughout. Also, the GI50 with UACC-257, in the assay with SF-268, in the assay on MDA-MB-435, in the assay with SK-OV-3, in the assay with CCRF-CEM and with MOLT-4 was > 100 µM (inactive) throughout. Moreover, the GI50 in the assay with Malme-3M was > 100 µM (inactive); with MDA-MB-231, > 100 µM (inactive); with OVCAR-4, 29.2 µM (inactive); in the assay on 786-0, > 100 µM (inactive); in the assay on BT-549, > 100 µM (inactive).

As to `O=C(/C=C/c1ccc2c(c1)OCO2)CC(=O)/C=C/c1ccc2c(c1)OCO2`, the GI50 in the assay on EKVX was 64 µM (inactive); with DU-145, > 10 µM (inactive); with UO-31, > 100 µM (inactive); in the assay with HOP-62 it was > 100 µM (inactive); in the assay with SK-MEL-28, > 10 µM (inactive); with SR, 39.1 µM (inactive). In addition, the GI50 in the assay on RPMI-8226 is > 100 µM (inactive); in the assay with NCI-H23, 19.6 µM (inactive); with SF-268 it was > 10 µM (inactive); in the assay with MDA-MB-435, > 100 µM (inactive); with SK-OV-3 it was > 100 µM (inactive); with CCRF-CEM it was 35.6 µM (inactive). The GI50 with HCC 2998 was > 100 µM (inactive); in the assay with MOLT-4, > 100 µM (inactive); with Malme-3M, > 100 µM (inactive); in the assay on MDA-MB-231, 34.6 µM (inactive); with OVCAR-4, 19.1 µM (inactive); in the assay with 786-0, 49.8 µM (inactive).

For `C=CC(=O)NCCC(=O)OCn1cc(F)c(=O)[nH]c1=O`, the GI50 in the assay with EKVX was 10.4 µM (inactive); in the assay on DU-145, 3.64 µM (inactive); in the assay with UO-31, 2.33 µM (inactive); in the assay on HOP-62, 4.98 µM (inactive); in the assay on SK-MEL-28 it was 32.2 µM (inactive); in the assay on SR, 2.12 µM (inactive). The GI50 is 1.75 µM (inactive) in the assay on RPMI-8226; 7.01 µM (inactive) with NCI-H23; 7.11 µM (inactive) in the assay with UACC-257; 18.7 µM (inactive) in the assay with SF-268; 5.32 µM (inactive) in the assay with MDA-MB-435; 16.3 µM (inactive) in the assay on SK-OV-3. The GI50 with CCRF-CEM is 16.7 µM (inactive); in the assay on HCC 2998, 0.369 µM (active); in the assay on MOLT-4, 6.01 µM (inactive); in the assay on Malme-3M, 4.59 µM (inactive); in the assay on OVCAR-4, 0.759 µM (active); in the assay on 786-0 it was 2.92 µM (inactive). Besides, in the assay with BT-549, the GI50 was > 100 µM (inactive).

Consider `CCN(CC)Cc1ccc(C(=S)Nc2ccc(Cl)cc2)s1`, for which the GI50 in the assay with EKVX is 4.06 µM (inactive); in the assay with DU-145 it was 15 µM (inactive); in the assay with UO-31, 11.4 µM (inactive); in the assay on HOP-62, 16.3 µM (inactive); in the assay with SK-MEL-28, 6.92 µM (inactive); with SR, 3.64 µM (inactive). Moreover, the GI50 in the assay with RPMI-8226 is 6.31 µM (inactive); in the assay on NCI-H23, 2.34 µM (inactive); in the assay with UACC-257, 4.81 µM (inactive); with SF-268, 11.3 µM (inactive); with MDA-MB-435, 9.91 µM (inactive); in the assay on SK-OV-3, 15.2 µM (inactive). The GI50 in the assay on CCRF-CEM is 11.9 µM (inactive); in the assay on HCC 2998 it was 12.6 µM (inactive); with MOLT-4, 4.54 µM (inactive); in the assay with OVCAR-4, 10 µM (inactive); in the assay with 786-0 it was 13.1 µM (inactive); with BT-549, 5.18 µM (inactive).

Regarding `COC(=O)C(/C(=N/N)C(=O)Nc1cccc(O)c1)c1nc2ccccc2nc1O` (stereo not given), the GI50 in the assay on EKVX was > 100 µM (inactive); in the assay on UO-31 it was > 100 µM (inactive); in the assay on HOP-62 it was > 100 µM (inactive); in the assay with SK-MEL-28 it was > 100 µM (inactive); with SR, > 100 µM (inactive); in the assay with RPMI-8226 it was > 10 µM (inactive). The GI50 with NCI-H23 was > 100 µM (inactive); in the assay on UACC-257, > 100 µM (inactive); with SF-268, > 100 µM (inactive); in the assay on MDA-MB-435 it was > 100 µM (inactive); in the assay with SK-OV-3 it was > 100 µM (inactive); in the assay on CCRF-CEM it was > 10 µM (inactive). Further, the GI50 with HCC 2998, with MOLT-4, in the assay with MDA-MB-231, in the assay on OVCAR-4, in the assay on 786-0 and in the assay with BT-549 was > 100 µM (inactive) in each case.

Turning to `COc1cc(/N=C(\N)N=C(N)N)c2ncccc2c1`, the GI50 with EKVX was > 100 µM (inactive); in the assay on DU-145, > 100 µM (inactive); with UO-31, > 100 µM (inactive); in the assay on HOP-62, > 100 µM (inactive); with SK-MEL-28, > 100 µM (inactive); in the assay with NCI-H23, 80.7 µM (inactive). Moreover, the GI50 in the assay with UACC-257 was > 100 µM (inactive); in the assay on SF-268, 98.2 µM (inactive); with MDA-MB-435, > 100 µM (inactive); in the assay on SK-OV-3, > 100 µM (inactive); in the assay on HCC 2998, > 100 µM (inactive); in the assay on Malme-3M, 44.7 µM (inactive). In addition, the GI50 with MDA-MB-231 is > 100 µM (inactive); in the assay on OVCAR-4, > 100 µM (inactive); in the assay with 786-0, 64.6 µM (inactive); in the assay with BT-549 it was 78.5 µM (inactive).

Consider `COc1cc(OC)cc(C(=O)CC(=O)c2cc(OC)cc(OC)c2)c1`, for which the GI50 in the assay on EKVX is > 100 µM (inactive); in the assay on DU-145 it was > 100 µM (inactive); with UO-31, > 100 µM (inactive); in the assay on HOP-62, > 100 µM (inactive); in the assay with SK-MEL-28, > 100 µM (inactive); in the assay with SR, 47.8 µM (inactive). The GI50 with RPMI-8226 was > 100 µM (inactive); in the assay with NCI-H23, > 100 µM (inactive); with UACC-257 it was > 100 µM (inactive); in the assay with SF-268, > 100 µM (inactive); in the assay on MDA-MB-435 it was 87.5 µM (inactive); with SK-OV-3 it was > 100 µM (inactive). The GI50 in the assay on CCRF-CEM was 63.5 µM (inactive); in the assay with HCC 2998 it was > 100 µM (inactive); in the assay with MOLT-4, > 100 µM (inactive); in the assay with Malme-3M, > 100 µM (inactive); in the assay on 786-0 it was > 100 µM (inactive); in the assay with BT-549, > 100 µM (inactive).

With `NNC1=N/C(=C\c2ccccc2O)C(=O)N1`, the GI50 in the assay on EKVX is 50.5 µM (inactive); with DU-145, 34.9 µM (inactive); with UO-31 it was 16.6 µM (inactive); with HOP-62 it was 48.5 µM (inactive); in the assay with SK-MEL-28, 60.8 µM (inactive); with RPMI-8226, 24 µM (inactive). The GI50 was 53.6 µM (inactive) in the assay on NCI-H23; 49.2 µM (inactive) in the assay on UACC-257; 31 µM (inactive) with SF-268; 61.4 µM (inactive) in the assay on MDA-MB-435; 31.7 µM (inactive) in the assay with SK-OV-3; 9.12 µM (inactive) in the assay on CCRF-CEM. The GI50 with MOLT-4 is 21.5 µM (inactive); in the assay with Malme-3M it was 43.9 µM (inactive); with MDA-MB-231, 35.4 µM (inactive); with 786-0 it was 20.7 µM (inactive); with BT-549 it was 37.9 µM (inactive).

On to `CC(=O)OCCN(C1=NCCN1)/[N+](C=c1ccc(=C=[N-])cc1)=C/c1ccc(C#N)cc1`, for which the GI50 in the assay with EKVX, with UO-31, in the assay on HOP-62, in the assay on SK-MEL-28, with SR and in the assay with NCI-H23 was > 100 µM (inactive) throughout. Further, the GI50 in the assay on UACC-257, in the assay with SF-268, in the assay on MDA-MB-435, with SK-OV-3, in the assay on CCRF-CEM and in the assay with HCC 2998 was > 100 µM (inactive) each time. The GI50 with MOLT-4, in the assay on Malme-3M, with MDA-MB-231, in the assay with OVCAR-4, with 786-0 and in the assay with BT-549 was > 100 µM (inactive) each time.

As to `O=Nc1c(-c2c(O)[nH]c3ccc(I)cc23)[nH]c2ccccc12`, the GI50 in the assay with EKVX is 2.96 µM (inactive); with DU-145, 3.35 µM (inactive); in the assay on UO-31 it was 2.19 µM (inactive); in the assay on SK-MEL-28, 4.32 µM (inactive); with RPMI-8226 it was 1.88 µM (inactive); in the assay with NCI-H23, 4.58 µM (inactive). Also, the GI50 in the assay on UACC-257 is > 31.5 µM (inactive); in the assay with SF-268, 4.42 µM (inactive); in the assay with MDA-MB-435, 4.55 µM (inactive); with SK-OV-3, 2.42 µM (inactive); with CCRF-CEM, 2.08 µM (inactive); in the assay with HCC 2998, 2.31 µM (inactive). The results for the GI50 with MDA-MB-231, in the assay with OVCAR-4 and in the assay with BT-549 were 3.79 µM (inactive), 3.41 µM (inactive) and 18 µM (inactive), respectively.

In the case of `COc1ccc2[nH]c3c(C)c4cc[n+](C)cc4c(C)c3c2c1`, the GI50 was 0.738 µM (active) with EKVX; 38.5 µM (inactive) in the assay on UO-31; 0.358 µM (active) in the assay on HOP-62; 1.32 µM (inactive) in the assay on SK-MEL-28; 0.521 µM (active) with NCI-H23; 8.41 µM (inactive) with UACC-257. Besides, the GI50 in the assay with SF-268 was 0.148 µM (active); with SK-OV-3 it was 7.74 µM (inactive); with CCRF-CEM it was 1.14 µM (inactive); in the assay on HCC 2998 it was 1.92 µM (inactive); with Malme-3M, 0.733 µM (active); in the assay on OVCAR-4, 1.91 µM (inactive). Moreover, in the assay on BT-549, the GI50 is 1.57 µM (inactive).
